Columns and labels:
Assay type in all cases: biochemical
[1] = biological target: PhKg2 (Homo sapiens, UniProt P15735); experiment: Caliper kinase profiling: PhKg2; details: PhKg2, 1 μM; read-out: Average % Inh @ 1 μM
[2] = biological target: FGFR3 (Homo sapiens, UniProt P22607); experiment: Caliper kinase profiling: FGFR3; details: FGFR3, 1 μM; read-out: Average % Inh @ 1 μM
[3] = tested on: AMPK; experiment: Caliper kinase profiling: AMPK
Method: (§1) The compound was tested at concentrations of 1.0×10^−8 and 1.0×10^−9 M in the RapidKinase192™ panel in duplicate. […] The screening was performed using the Caliper EZReader2, a 4-sipper LabChip, and ProfilerPro Kinase Selectivity Assay Kits 1 and 2. The assay measures the conversion of a fluorescent peptide substrate to a phosphorylated product. Briefly, the reaction mixture was introduced through a capillary sipper onto the microfluidic chip, where the substrate and product were electrophoretically separated and detected by laser-induced fluorescence. The time-dependent fluorescence signal indicates the extent of the reaction.

[4] = biological target: KDR (Homo sapiens, UniProt P35968); experiment: Caliper kinase profiling: KDR; details: read-out: Average % Inh @ 1 μM
Method: as §1

[5] = biological target: T1, Mer (Homo sapiens, UniProt Q12866); experiment: Caliper kinase profiling: Mer; details: for inhibition at 0.01 µM: 10 nM, read-out: Average % Inh @ 10 nM
T1 construct: purchased Caliper LifeSciences (ProfilerPro Kinase Selectivity Assay Kits)
T1 sequence (Q12866 21-999): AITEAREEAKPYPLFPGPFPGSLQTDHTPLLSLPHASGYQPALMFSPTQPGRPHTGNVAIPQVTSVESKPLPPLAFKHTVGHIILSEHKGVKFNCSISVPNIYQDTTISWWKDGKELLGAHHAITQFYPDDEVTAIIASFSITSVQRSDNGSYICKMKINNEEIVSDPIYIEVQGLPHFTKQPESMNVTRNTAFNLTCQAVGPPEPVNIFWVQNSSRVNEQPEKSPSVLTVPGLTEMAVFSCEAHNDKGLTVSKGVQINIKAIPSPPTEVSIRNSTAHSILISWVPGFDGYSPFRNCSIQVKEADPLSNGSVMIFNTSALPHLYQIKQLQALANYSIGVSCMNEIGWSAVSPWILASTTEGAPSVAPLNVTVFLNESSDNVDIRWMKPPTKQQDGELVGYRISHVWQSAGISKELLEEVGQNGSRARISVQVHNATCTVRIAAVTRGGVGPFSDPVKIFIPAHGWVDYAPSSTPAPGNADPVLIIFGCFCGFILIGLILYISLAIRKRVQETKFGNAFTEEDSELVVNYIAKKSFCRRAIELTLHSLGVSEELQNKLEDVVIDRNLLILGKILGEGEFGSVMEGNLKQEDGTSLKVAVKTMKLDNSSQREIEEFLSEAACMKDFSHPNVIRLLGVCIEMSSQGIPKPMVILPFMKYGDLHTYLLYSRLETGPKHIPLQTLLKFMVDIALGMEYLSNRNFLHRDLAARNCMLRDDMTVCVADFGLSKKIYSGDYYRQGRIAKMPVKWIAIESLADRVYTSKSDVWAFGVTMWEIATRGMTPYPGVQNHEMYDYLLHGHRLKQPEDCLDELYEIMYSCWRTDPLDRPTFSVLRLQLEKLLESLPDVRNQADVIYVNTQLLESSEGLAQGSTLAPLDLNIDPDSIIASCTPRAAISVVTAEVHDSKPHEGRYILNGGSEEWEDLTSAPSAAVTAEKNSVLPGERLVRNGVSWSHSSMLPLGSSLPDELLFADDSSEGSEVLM

[6] = biological target: DCAMKL2 (Homo sapiens, UniProt Q8N568); experiment: Caliper kinase profiling: DCAMKL2; details: DCAMKL2, 1 μM; read-out: Average % Inh @ 1 μM
[7] = biological target: T2, ABL1(Y253F) (Homo sapiens, UniProt P00519, Y253F); experiment: Caliper kinase profiling: ABL1(Y253F); details: read-out: Average % Inh @ 1 μM
T2 construct: purchased Caliper LifeSciences (ProfilerPro Kinase Selectivity Assay Kits)

[8] = biological target: PAK5(PAK7) (Homo sapiens, UniProt Q9P286); experiment: Caliper kinase profiling: PAK5(PAK7); details: read-out: Average % Inh @ 1 μM
[9] = biological target: FGFR3(K650E) (Homo sapiens, UniProt P22607, K650E); experiment: Caliper kinase profiling: FGFR3(K650E); details: read-out: Average % Inh @ 1 μM
[10] = biological target: DCAMKL1 (Homo sapiens, UniProt O15075); experiment: Caliper kinase profiling: DCAMKL1; details: DCAMKL1, 1 μM; read-out: Average % Inh @ 1 μM
[11] = biological target: EPHA5 (Homo sapiens, UniProt P54756); experiment: Caliper kinase profiling: EPHA5; details: EPHA5, 1 μM; read-out: Average % Inh @ 1 μM
[12] = biological target: LTK (Homo sapiens, UniProt P29376); experiment: Caliper kinase profiling: LTK; details: read-out: Average % Inh @ 1 μM
[13] = biological target: FRK (Homo sapiens, UniProt P42685); experiment: Caliper kinase profiling: FRK; details: read-out: Average % Inh @ 1 μM
[14] = biological target: T3, PYK2 (Homo sapiens, UniProt Q14289); experiment: Caliper kinase profiling: PYK2; details: for inhibition at 0.01 µM: PYK2, 10 nM, read-out: Average % Inh @ 10 nM
T3 construct: purchased Caliper LifeSciences (ProfilerPro Kinase Selectivity Assay Kits)

[15] = biological target: EPHB2 (Homo sapiens, UniProt P29323); experiment: Caliper kinase profiling: EPHB2; details: EPHB2, 1 μM; read-out: Average % Inh @ 1 μM
[16] = biological target: FGFR1 (Homo sapiens, UniProt P11362); experiment: Caliper kinase profiling: FGFR1
[17] = biological target: Flt3(D835Y) (Homo sapiens, UniProt P36888, D835Y); experiment: Caliper kinase profiling: Flt3(D835Y); details: read-out: Average % Inh @ 1 μM
[18] = biological target: JAK2 (Homo sapiens, UniProt O60674); experiment: Caliper kinase profiling: JAK2; details: JAK2, 1 μM; read-out: Average % Inh @ 1 μM

FGFR1, sequence (P11362 22-822): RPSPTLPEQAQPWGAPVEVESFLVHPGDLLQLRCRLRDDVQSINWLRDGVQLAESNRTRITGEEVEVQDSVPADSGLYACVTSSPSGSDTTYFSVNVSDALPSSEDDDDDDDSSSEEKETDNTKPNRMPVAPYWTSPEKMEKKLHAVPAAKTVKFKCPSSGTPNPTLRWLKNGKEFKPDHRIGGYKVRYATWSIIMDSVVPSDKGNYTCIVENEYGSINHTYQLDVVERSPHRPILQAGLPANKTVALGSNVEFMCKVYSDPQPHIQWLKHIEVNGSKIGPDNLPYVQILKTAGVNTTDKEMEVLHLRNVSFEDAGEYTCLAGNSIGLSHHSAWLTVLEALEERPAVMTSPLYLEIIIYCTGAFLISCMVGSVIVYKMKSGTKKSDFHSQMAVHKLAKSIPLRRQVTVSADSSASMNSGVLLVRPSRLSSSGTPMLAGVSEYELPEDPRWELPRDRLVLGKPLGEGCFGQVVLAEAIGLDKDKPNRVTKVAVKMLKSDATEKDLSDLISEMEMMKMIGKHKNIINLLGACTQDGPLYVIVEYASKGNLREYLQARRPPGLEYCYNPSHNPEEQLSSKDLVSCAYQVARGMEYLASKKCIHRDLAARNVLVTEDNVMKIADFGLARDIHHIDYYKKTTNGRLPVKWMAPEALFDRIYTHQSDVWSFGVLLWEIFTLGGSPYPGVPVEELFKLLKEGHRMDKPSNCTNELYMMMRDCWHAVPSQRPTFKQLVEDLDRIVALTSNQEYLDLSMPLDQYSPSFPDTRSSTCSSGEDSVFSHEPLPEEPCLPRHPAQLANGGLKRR
T3 sequence (Q14289 whole entry): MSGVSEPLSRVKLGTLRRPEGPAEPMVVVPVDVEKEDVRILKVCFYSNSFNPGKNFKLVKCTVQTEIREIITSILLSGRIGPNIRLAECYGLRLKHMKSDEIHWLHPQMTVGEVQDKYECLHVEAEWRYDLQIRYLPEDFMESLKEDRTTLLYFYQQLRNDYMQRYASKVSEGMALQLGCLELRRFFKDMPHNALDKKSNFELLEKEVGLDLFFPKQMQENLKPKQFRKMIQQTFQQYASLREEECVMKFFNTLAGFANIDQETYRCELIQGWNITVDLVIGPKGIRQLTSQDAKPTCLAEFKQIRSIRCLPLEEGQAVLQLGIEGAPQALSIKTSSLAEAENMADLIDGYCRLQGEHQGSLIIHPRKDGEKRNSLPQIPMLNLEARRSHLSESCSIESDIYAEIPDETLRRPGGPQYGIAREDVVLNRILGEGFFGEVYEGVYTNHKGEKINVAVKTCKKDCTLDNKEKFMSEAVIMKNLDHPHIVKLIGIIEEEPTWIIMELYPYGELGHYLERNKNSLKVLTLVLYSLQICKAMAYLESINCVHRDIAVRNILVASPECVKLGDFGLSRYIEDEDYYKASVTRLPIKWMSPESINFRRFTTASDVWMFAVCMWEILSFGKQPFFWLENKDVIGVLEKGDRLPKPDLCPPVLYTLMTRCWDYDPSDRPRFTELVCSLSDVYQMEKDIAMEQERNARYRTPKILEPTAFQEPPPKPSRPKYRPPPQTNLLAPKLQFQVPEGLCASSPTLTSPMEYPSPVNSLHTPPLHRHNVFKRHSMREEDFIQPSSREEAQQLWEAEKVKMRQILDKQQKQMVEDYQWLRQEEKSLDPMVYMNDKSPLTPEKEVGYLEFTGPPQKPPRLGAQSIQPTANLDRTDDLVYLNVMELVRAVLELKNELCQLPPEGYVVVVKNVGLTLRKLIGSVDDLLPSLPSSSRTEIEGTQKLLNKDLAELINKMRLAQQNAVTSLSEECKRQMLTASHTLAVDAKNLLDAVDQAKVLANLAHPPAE
FGFR3(K650E), sequence (P22607 23-806 K650E): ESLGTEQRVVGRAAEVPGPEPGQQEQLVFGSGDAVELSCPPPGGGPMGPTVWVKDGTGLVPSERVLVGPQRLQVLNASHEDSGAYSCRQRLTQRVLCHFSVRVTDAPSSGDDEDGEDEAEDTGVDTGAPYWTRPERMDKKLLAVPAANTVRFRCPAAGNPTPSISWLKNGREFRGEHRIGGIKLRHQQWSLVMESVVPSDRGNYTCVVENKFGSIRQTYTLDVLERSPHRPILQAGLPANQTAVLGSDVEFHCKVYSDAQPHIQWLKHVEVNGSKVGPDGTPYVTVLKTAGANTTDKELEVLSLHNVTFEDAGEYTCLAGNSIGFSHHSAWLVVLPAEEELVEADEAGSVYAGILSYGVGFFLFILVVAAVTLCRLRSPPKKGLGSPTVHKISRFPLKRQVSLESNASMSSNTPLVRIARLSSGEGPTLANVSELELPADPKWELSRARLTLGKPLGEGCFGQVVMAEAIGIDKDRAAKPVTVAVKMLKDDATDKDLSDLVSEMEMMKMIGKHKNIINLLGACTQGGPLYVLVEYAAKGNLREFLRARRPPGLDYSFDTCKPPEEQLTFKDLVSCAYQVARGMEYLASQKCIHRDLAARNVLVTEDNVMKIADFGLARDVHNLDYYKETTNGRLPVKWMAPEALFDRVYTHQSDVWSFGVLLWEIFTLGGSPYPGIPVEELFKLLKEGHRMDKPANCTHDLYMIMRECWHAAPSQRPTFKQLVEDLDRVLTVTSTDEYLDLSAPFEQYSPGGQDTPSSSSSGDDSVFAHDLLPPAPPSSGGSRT
EPHB2, sequence (P29323 19-1055): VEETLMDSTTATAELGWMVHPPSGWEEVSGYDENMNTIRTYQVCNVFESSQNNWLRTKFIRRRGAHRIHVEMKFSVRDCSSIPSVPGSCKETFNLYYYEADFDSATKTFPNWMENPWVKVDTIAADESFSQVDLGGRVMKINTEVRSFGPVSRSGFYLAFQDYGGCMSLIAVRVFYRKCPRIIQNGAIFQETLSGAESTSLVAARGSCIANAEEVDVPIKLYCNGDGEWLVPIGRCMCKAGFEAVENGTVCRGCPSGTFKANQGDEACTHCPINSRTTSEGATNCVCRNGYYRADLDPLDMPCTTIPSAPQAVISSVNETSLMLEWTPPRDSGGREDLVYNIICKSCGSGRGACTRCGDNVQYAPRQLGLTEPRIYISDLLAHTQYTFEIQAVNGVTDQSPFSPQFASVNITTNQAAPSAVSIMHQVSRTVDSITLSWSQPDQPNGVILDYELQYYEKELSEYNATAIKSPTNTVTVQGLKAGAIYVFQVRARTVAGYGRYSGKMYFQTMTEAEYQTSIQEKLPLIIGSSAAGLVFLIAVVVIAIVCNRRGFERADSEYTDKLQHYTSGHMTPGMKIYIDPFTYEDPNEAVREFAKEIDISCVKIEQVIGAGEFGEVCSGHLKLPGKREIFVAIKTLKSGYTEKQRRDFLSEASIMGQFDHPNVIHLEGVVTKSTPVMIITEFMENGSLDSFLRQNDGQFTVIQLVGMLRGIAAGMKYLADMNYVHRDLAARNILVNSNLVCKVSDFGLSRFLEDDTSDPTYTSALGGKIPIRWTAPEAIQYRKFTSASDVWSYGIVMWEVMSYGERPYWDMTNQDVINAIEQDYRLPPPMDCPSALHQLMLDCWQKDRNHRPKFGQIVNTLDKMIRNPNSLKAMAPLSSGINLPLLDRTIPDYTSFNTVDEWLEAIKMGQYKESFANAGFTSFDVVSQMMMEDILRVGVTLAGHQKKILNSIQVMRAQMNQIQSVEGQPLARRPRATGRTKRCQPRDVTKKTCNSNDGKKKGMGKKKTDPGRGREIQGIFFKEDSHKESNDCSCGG
DCAMKL1, sequence (O15075 whole entry): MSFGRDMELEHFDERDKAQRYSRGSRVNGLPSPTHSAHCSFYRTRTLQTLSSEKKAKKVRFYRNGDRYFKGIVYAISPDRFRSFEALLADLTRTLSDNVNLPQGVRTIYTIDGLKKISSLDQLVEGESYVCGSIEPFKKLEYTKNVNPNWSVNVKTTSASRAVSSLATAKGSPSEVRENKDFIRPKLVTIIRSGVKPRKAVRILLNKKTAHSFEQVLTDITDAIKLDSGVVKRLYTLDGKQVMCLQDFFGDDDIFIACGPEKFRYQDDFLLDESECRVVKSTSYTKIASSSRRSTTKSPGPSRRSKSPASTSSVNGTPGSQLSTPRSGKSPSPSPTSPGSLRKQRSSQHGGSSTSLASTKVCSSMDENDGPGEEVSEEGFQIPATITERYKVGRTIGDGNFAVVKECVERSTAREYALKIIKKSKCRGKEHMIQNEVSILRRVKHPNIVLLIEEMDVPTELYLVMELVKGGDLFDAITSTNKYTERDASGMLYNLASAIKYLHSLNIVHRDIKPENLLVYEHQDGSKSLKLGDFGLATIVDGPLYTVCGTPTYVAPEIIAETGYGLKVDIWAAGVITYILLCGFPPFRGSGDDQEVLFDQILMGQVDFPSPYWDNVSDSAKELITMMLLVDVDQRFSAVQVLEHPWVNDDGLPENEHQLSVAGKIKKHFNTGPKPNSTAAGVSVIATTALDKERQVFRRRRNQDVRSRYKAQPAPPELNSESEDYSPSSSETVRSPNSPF
FRK, sequence (P42685 whole entry): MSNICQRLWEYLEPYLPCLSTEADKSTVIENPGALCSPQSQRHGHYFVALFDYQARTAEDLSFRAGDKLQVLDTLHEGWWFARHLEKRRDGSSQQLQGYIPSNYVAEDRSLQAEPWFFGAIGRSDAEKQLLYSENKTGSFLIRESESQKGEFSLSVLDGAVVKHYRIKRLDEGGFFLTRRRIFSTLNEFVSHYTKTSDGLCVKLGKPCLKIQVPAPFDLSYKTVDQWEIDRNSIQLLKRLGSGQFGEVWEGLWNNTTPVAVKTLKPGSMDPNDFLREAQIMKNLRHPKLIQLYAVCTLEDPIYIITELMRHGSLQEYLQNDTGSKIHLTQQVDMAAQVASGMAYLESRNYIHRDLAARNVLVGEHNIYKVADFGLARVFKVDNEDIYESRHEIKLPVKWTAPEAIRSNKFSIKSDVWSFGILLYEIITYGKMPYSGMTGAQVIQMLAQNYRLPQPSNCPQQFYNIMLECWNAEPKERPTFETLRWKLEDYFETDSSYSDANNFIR
FGFR3, sequence (P22607 23-806): as the sequence (P22607 23-806 K650E) above, with E628K counted along it

O=C(Nc1ccc(F)nc1)C1CCCN1c1nc2c(c(Nc3cc(C4CC4)[nH]n3)n1)CCC2 (single isomer, unassigned) [Compound 2b, 1-(4-(5-cyclopropyl-1H-pyrazol-3-ylamino)-6,7-dihydro-5H-cyclopenta[d]pyrimidin-2-yl)-N-(6-fluoropyridin-3-yl)pyrrolidine-2-carboxamide]
40 to 59%: inhibition at 1 µM [1] | inhibition at 1 µM [4] | inhibition at 0.01 µM [5] | inhibition at 1 µM [7] | inhibition at 1 µM [8] | inhibition at 1 µM [10]
> 60%: inhibition at 1 µM [2] | inhibition at 0.1 µM ([5]; 100 nM, read-out: Average % Inh @ 100 nM) | inhibition at 1 µM ([5]; 1 μM, read-out: Average % Inh @ 1 μM) | inhibition at 1 µM [6] | inhibition at 1 µM [9] | inhibition at 1 µM [11] | inhibition at 1 µM [12] | inhibition at 1 µM [13] | inhibition at 0.1 µM ([14]; PYK2, 100 nM, read-out: Average % Inh @ 100 nM) | inhibition at 1 µM ([14]; PYK2, 1 μM, read-out: Average % Inh @ 1 μM) | inhibition at 1 µM [15] | inhibition at 1 µM ([16]; FGFR1, 1 μM, read-out: Average % Inh @ 1 μM) | inhibition at 1 µM [17] | inhibition at 1 µM [18]
+ (+=Low): Average % Inh @ 10 nM ([3]; 10 nM)
+++ (+++=High): Average % Inh @ 1 μM ([3]; 1 μM)
< 39%: inhibition at 0.01 µM [14] | inhibition at 0.01 µM ([16]; FGFR1, 10 nM, read-out: Average % Inh @ 10 nM) | inhibition at 0.1 µM ([16]; FGFR1, 100 nM, read-out: Average % Inh @ 100 nM)
++ (++=Med): Average % Inh @ 100 nM ([3]; 100 nM)

CC(C)c1cc(Nc2nc(N3CCCC3C(=O)Nc3ccc(F)nc3)nc3c2CCC3)n[nH]1 (single isomer, unassigned) [Compound 8b]
40 to 59%: inhibition at 0.01 µM [14]
3.84 nM: IC50 ([5]; 8 concentrations 3.0×10^−7 to 1.0×10^−10 M)
> 60%: inhibition at 0.01 µM [5]
< 39%: inhibition at 0.001 µM ([5]; 1 nM, read-out: Average % Inh @ 1 nM) | inhibition at 0.001 µM ([14]; PYK2, 1 nM, read-out: Average % Inh @ 1 nM)

From US9422267B2, “Fused pyrimidine compounds and use thereof” (Medivation Technologies, Inc., priority 2012, dated 2016)
